Data on 17 molecules can be found in ChEMBL document CHEMBL5523746, “Discovery of Novel Peptide Antagonists Targeting GPR55 for Liver Inflammation and Fibrosis” (2024).

Experiment [1] relates to LX-2. The experiment in a line: Anti-fibrotic activity in human LX2 cells assessed as reduction in COL1alpha expression by measuring relative inhibition rate measured after 24 hrs incubation by Western blot analysis relative to control. The arrangement: concentration or dose not given beside the values. The format is functional.
Experiment [2] has as its system LX-2. Kind of experiment: Anti-fibrotic activity in human LX2 cells assessed as reduction in […] expression by measuring relative inhibition rate measured after 24 hrs incubation by Western blot analysis relative to control. The arrangement: concentration or dose not given beside the values. The format is functional.

Bridge positions count the residues as written; N and C are the ends. Peptide text beside a SMILES is read from it.

Turning to `CC(C)C[C@@H]1NC(=O)[C@H]([C@@H](C)O)NC(=O)[C@@H]2CCCN2C(=O)[C@H](CO)NC(=O)[C@H](CC(N)=O)NC(=O)[C@H](CCCCN)NC(=O)[C@H](C)NC(=O)[C@@H](N)CSSC[C@@H](C(=O)O)NC1=O` (H-CAKNSPTLC-OH; disulfide 1-9), the Activity with LX-2 [1] is on record as 90.3%; in the experiment on LX-2 [2], 76.4%.

Consider `CC(C)C[C@@H]1NC(=O)[C@H]([C@@H](C)O)NC(=O)[C@@H]2CCCN2C(=O)[C@H](CO)NC(=O)[C@H](CC(N)=O)NC(=O)[C@H](C)NC(=O)[C@H](CCCCN)NC(=O)[C@@H](N)CSSC[C@@H](C(=O)O)NC1=O` (H-CKANSPTLC-OH; disulfide 1-9), for which the figures for the Activity with LX-2 [1] and with LX-2 [2] were 139.1% and 88.9%, respectively.

`CC(C)C[C@@H]1NC(=O)[C@H]([C@@H](C)O)NC(=O)[C@@H]2CCCN2C(=O)[C@H](CO)NC(=O)[C@H](C)NC(=O)[C@H](CCCCN)NC(=O)[C@H](CCCCN)NC(=O)[C@@H](N)CSSC[C@@H](C(=O)O)NC1=O` (H-CKKASPTLC-OH; disulfide 1-9): the Activity is recorded as 132.9% in the experiment with LX-2 [1] and 87.7% with LX-2 [2].

Turning to `CC(C)C[C@@H]1NC(=O)[C@H]([C@@H](C)O)NC(=O)[C@@H]2CCCN2C(=O)[C@H](CO)NC(=O)[C@H](CC(=O)O)NC(=O)[C@H](CCCCN)NC(=O)[C@H](CCCCN)NC(=O)[C@@H](N)CSSC[C@@H](C(=O)O)NC1=O` (H-CKKDSPTLC-OH; disulfide 1-9), the Activity with LX-2 [1] was 64.7%; with LX-2 [2], 82.4%.

As to `CC(C)C[C@@H]1NC(=O)[C@H]([C@@H](C)O)NC(=O)[C@@H]2CCCN2C(=O)[C@H](C)NC(=O)[C@H](CC(N)=O)NC(=O)[C@H](CCCCN)NC(=O)[C@H](CCCCN)NC(=O)[C@@H](N)CSSC[C@@H](C(=O)O)NC1=O` (H-CKKNAPTLC-OH; disulfide 1-9), the Activity with LX-2 [1] turned out to be 99.4%; in the experiment with LX-2 [2], 74.5%.

Consider `CC(C)C[C@@H]1NC(=O)[C@H]([C@@H](C)O)NC(=O)[C@H](C)NC(=O)[C@H](CO)NC(=O)[C@H](CC(N)=O)NC(=O)[C@H](CCCCN)NC(=O)[C@H](CCCCN)NC(=O)[C@@H](N)CSSC[C@@H](C(=O)O)NC1=O` (H-CKKNSATLC-OH; disulfide 1-9), for which the Activity is recorded as 140.1% in the experiment on LX-2 [1] and 91.8% in the experiment on LX-2 [2].

Take `CC(C)C[C@@H]1NC(=O)[C@H](CO)NC(=O)[C@H](CC(N)=O)NC(=O)[C@H](CCCCN)NC(=O)[C@H](CCCCN)NC(=O)[C@@H](N)CSSC[C@@H](C(=O)O)NC(=O)[C@H](CC(C)C)NC(=O)[C@H]([C@@H](C)O)NC1=O` (H-CKKNSLTLC-OH; disulfide 1-9): the Activity with LX-2 [1] was 66.1%; in the experiment on LX-2 [2], 68.9%.

For `CC(C)C[C@@H]1NC(=O)[C@H](C)NC(=O)[C@@H]2CCCN2C(=O)[C@H](CO)NC(=O)[C@H](CC(N)=O)NC(=O)[C@H](CCCCN)NC(=O)[C@H](CCCCN)NC(=O)[C@@H](N)CSSC[C@@H](C(=O)O)NC1=O` (H-CKKNSPALC-OH; disulfide 1-9), the Activity in the experiment on LX-2 [1] is 79.7%; in the experiment with LX-2 [2], 61.2%.

As for `CC(C)C[C@@H]1NC(=O)[C@H](CCC(=O)O)NC(=O)[C@@H]2CCCN2C(=O)[C@H](CO)NC(=O)[C@H](CC(N)=O)NC(=O)[C@H](CCCCN)NC(=O)[C@H](CCCCN)NC(=O)[C@@H](N)CSSC[C@@H](C(=O)O)NC1=O` (H-CKKNSPELC-OH; disulfide 1-9), the Activity in the experiment on LX-2 [1] is listed as 59.2%; in the experiment on LX-2 [2], 82.9%.

As to `CC(C)C[C@@H]1NC(=O)[C@H](CCCNC(=N)N)NC(=O)[C@@H]2CCCN2C(=O)[C@H](CO)NC(=O)[C@H](CC(N)=O)NC(=O)[C@H](CCCCN)NC(=O)[C@H](CCCCN)NC(=O)[C@@H](N)CSSC[C@@H](C(=O)O)NC1=O` (H-CKKNSPRLC-OH; disulfide 1-9), the Activity in the experiment on LX-2 [1] was 76.7%; in the experiment with LX-2 [2], 92.6%.

In the case of `CC(C)C[C@@H]1NC(=O)[C@H](CO)NC(=O)[C@@H]2CCCN2C(=O)[C@H](CO)NC(=O)[C@H](CC(N)=O)NC(=O)[C@H](CCCCN)NC(=O)[C@H](CCCCN)NC(=O)[C@@H](N)CSSC[C@@H](C(=O)O)NC1=O` (H-CKKNSPSLC-OH; disulfide 1-9), the figures for the Activity in the experiment on LX-2 [1] and in the experiment on LX-2 [2] were 69.4% and 93.8%, respectively.

With `C[C@@H]1NC(=O)[C@H]([C@@H](C)O)NC(=O)[C@@H]2CCCN2C(=O)[C@H](CO)NC(=O)[C@H](CC(N)=O)NC(=O)[C@H](CCCCN)NC(=O)[C@H](CCCCN)NC(=O)[C@@H](N)CSSC[C@@H](C(=O)O)NC1=O` (H-CKKNSPTAC-OH; disulfide 1-9), the Activity in the experiment on LX-2 [1] is 74.1%.

For the molecule `C[C@@H](O)[C@@H]1NC(=O)[C@@H]2CCCN2C(=O)[C@H](CO)NC(=O)[C@H](CC(N)=O)NC(=O)[C@H](CCCCN)NC(=O)[C@H](CCCCN)NC(=O)[C@@H](N)CSSC[C@@H](C(=O)O)NC(=O)[C@H](Cc2c[nH]cn2)NC1=O` (H-CKKNSPTHC-OH; disulfide 1-9), the Activity was 62.6% in the experiment with LX-2 [1] and 71.5% in the experiment on LX-2 [2].

Regarding `CC(C)C[C@@H]1NC(=O)[C@H]([C@@H](C)O)NC(=O)[C@@H]2CCCN2C(=O)[C@H](CO)NC(=O)[C@H](CC(N)=O)NC(=O)[C@H](CCCCN)NC(=O)[C@H](CCCCN)NC(=O)[C@@H](N)CSSC[C@@H](C(=O)O)NC1=O` (H-CKKNSPTLC-OH; disulfide 1-9), the results for the Activity in the experiment on LX-2 [1] and in the experiment with LX-2 [2] were 57.5% and 66.4%, respectively.

Consider `C[C@@H](O)[C@@H]1NC(=O)[C@@H]2CCCN2C(=O)[C@H](CO)NC(=O)[C@H](CC(N)=O)NC(=O)[C@H](CCCCN)NC(=O)[C@H](CCCCN)NC(=O)[C@@H](N)CSSC[C@@H](C(=O)O)NC(=O)[C@H](CCC(N)=O)NC1=O` (H-CKKNSPTQC-OH; disulfide 1-9), for which the Activity came to 74.6% in the experiment with LX-2 [1] and 82.3% with LX-2 [2].

Turning to `C[C@@H](O)[C@@H]1NC(=O)[C@H]([C@@H](C)O)NC(=O)[C@@H]2CCCN2C(=O)[C@H](CO)NC(=O)[C@H](CC(N)=O)NC(=O)[C@H](CCCCN)NC(=O)[C@H](CCCCN)NC(=O)[C@@H](N)CSSC[C@@H](C(=O)O)NC1=O` (H-CKKNSPTTC-OH; disulfide 1-9), the results for the Activity in the experiment with LX-2 [1] and with LX-2 [2] were 66.1% and 84.9%, respectively.

On to `CC(C)C[C@@H]1NC(=O)[C@H]([C@@H](C)O)NC(=O)[C@@H]2CCCN2C(=O)[C@H]([C@@H](C)O)NC(=O)[C@H](CC(N)=O)NC(=O)[C@H](CCCCN)NC(=O)[C@H](CCCCN)NC(=O)[C@@H](N)CSSC[C@@H](C(=O)O)NC1=O` (H-CKKNTPTLC-OH; disulfide 1-9), for which the values for the Activity with LX-2 [1] and in the experiment with LX-2 [2] were 85.7% and 91.6%, respectively.
